Read-outs that look alike come from different tables or passages of the source.
Test system: PABPC1 PABC
Format: binding, human
Conditions: DMS-BM library, bait PABPC1 PABC, row aa = residue at this position; for DMS-derived PSSM value (averaged), position S13 / DMS-derived PSSM value, position S15 / DMS-derived PSSM value, position S13 / DMS-derived PSSM value, position S2: S = wild type
[1] = prey ATXN2, peptide KSTLNPNAKEFNPRSF, N = wild type
[2] = prey ATXN2, peptide KSTLNPNAKEFNPRSF, R = wild type
[3] = prey ATXN2, TLNPNAKEFNPRSF(averaged) over the two overlapping peptides, F = wild type
[4] = prey ATXN2, TLNPNAKEFNPRSF(averaged) over the two overlapping peptides, T = wild type
[5] = prey ATXN2, peptide TLNPNAKEFNPRSFSQ, A = wild type
[6] = prey ATXN2, peptide KSTLNPNAKEFNPRSF, P = wild type
[7] = prey ATXN2, peptide TLNPNAKEFNPRSFSQ, P = wild type
[8] = prey ATXN2, TLNPNAKEFNPRSF(averaged) over the two overlapping peptides, A = wild type
[9] = prey ATXN2, peptide TLNPNAKEFNPRSFSQ, R = wild type
[10] = prey ATXN2, TLNPNAKEFNPRSF(averaged) over the two overlapping peptides, N = wild type
[11] = prey ATXN2, peptide TLNPNAKEFNPRSFSQ, N = wild type
[12] = prey ATXN2, TLNPNAKEFNPRSF(averaged) over the two overlapping peptides
[13] = prey ATXN2, peptide KSTLNPNAKEFNPRSF
[14] = prey ATXN2, TLNPNAKEFNPRSF(averaged) over the two overlapping peptides, E = wild type
[15] = prey ATXN2, peptide KSTLNPNAKEFNPRSF, E = wild type
[16] = prey ATXN2, peptide TLNPNAKEFNPRSFSQ
[17] = prey ATXN2, peptide KSTLNPNAKEFNPRSF, F = wild type
[18] = prey ATXN2, TLNPNAKEFNPRSF(averaged) over the two overlapping peptides, L = wild type

KSTLNPNAKEFNPRSF N12G (KSTLNPNAKEFGPRSF)
DMS-derived PSSM value, position N12 [1]: 0.02172

KSTLNPNAKEFNPRSF R14I (KSTLNPNAKEFNPISF)
DMS-derived PSSM value, position R14 [2]: 0.04837

TLNPNAKEFNPRSF(averaged) F14Q (TLNPNAKEFNPRSQ)
DMS-derived PSSM value (averaged), position F14 [3]: 0.06013

TLNPNAKEFNPRSF(averaged) T1F (FLNPNAKEFNPRSF)
DMS-derived PSSM value (averaged), position T1 [4]: 0.03587

TLNPNAKEFNPRSFSQ A6G (TLNPNGKEFNPRSFSQ)
DMS-derived PSSM value, position A6 [5]: 0

KSTLNPNAKEFNPRSF P6K (KSTLNKNAKEFNPRSF)
DMS-derived PSSM value, position P6 [6]: 0

TLNPNAKEFNPRSFSQ P4G (TLNGNAKEFNPRSFSQ)
DMS-derived PSSM value, position P4 [7]: 0.0005247

TLNPNAKEFNPRSF(averaged) T1H (HLNPNAKEFNPRSF)
DMS-derived PSSM value (averaged), position T1 [4]: 0.01509

KSTLNPNAKEFNPRSF R14W (KSTLNPNAKEFNPWSF)
DMS-derived PSSM value, position R14 [2]: 0.1772

TLNPNAKEFNPRSFSQ F14A (TLNPNAKEFNPRSASQ)
DMS-derived PSSM value, position F14 (prey ATXN2, peptide TLNPNAKEFNPRSFSQ, F = wild type): 0.01754

TLNPNAKEFNPRSF(averaged) A6W (TLNPNWKEFNPRSF)
DMS-derived PSSM value (averaged), position A6 [8]: 0

TLNPNAKEFNPRSFSQ R12P (TLNPNAKEFNPPSFSQ)
DMS-derived PSSM value, position R12 [9]: 0.005288

TLNPNAKEFNPRSF(averaged) N3F (TLFPNAKEFNPRSF)
DMS-derived PSSM value (averaged), position N3 [10]: 0

TLNPNAKEFNPRSFSQ A6L (TLNPNLKEFNPRSFSQ)
DMS-derived PSSM value, position A6 [5]: 0

TLNPNAKEFNPRSFSQ N3H (TLHPNAKEFNPRSFSQ)
DMS-derived PSSM value, position N3 [11]: 0

TLNPNAKEFNPRSFSQ P11V (TLNPNAKEFNVRSFSQ)
DMS-derived PSSM value, position P11 [7]: 0.1131

KSTLNPNAKEFNPRSF P13N (KSTLNPNAKEFNNRSF)
DMS-derived PSSM value, position P13 [6]: 0.004405

TLNPNAKEFNPRSF(averaged) N10D (TLNPNAKEFDPRSF)
DMS-derived PSSM value (averaged), position N10 [10]: 0.04905

TLNPNAKEFNPRSFSQ N10Y (TLNPNAKEFYPRSFSQ)
DMS-derived PSSM value, position N10 [11]: 0.09858

KSTLNPNAKEFNPRSF L4M (KSTMNPNAKEFNPRSF)
DMS-derived PSSM value, position L4 (prey ATXN2, peptide KSTLNPNAKEFNPRSF, L = wild type): 0.3054

KSTLNPNAKEFNPRSF N7K (KSTLNPKAKEFNPRSF)
DMS-derived PSSM value, position N7 [1]: 0.007258

TLNPNAKEFNPRSF(averaged) S13V (TLNPNAKEFNPRVF)
DMS-derived PSSM value (averaged), position S13 [12]: 0.05819

TLNPNAKEFNPRSFSQ P11W (TLNPNAKEFNWRSFSQ)
DMS-derived PSSM value, position P11 [7]: 0.02291

KSTLNPNAKEFNPRSF S15D (KSTLNPNAKEFNPRDF)
DMS-derived PSSM value, position S15 [13]: 0

TLNPNAKEFNPRSF(averaged) E8A (TLNPNAKAFNPRSF)
DMS-derived PSSM value (averaged), position E8 [14]: 0.01267

TLNPNAKEFNPRSFSQ L2R (TRNPNAKEFNPRSFSQ)
DMS-derived PSSM value, position L2 (prey ATXN2, peptide TLNPNAKEFNPRSFSQ, L = wild type): 0

TLNPNAKEFNPRSFSQ N10P (TLNPNAKEFPPRSFSQ)
DMS-derived PSSM value, position N10 [11]: 0.06147

KSTLNPNAKEFNPRSF N7A (KSTLNPAAKEFNPRSF)
DMS-derived PSSM value, position N7 [1]: 0.01018

TLNPNAKEFNPRSFSQ E8V (TLNPNAKVFNPRSFSQ)
DMS-derived PSSM value, position E8 (prey ATXN2, peptide TLNPNAKEFNPRSFSQ, E = wild type): 0.09834

TLNPNAKEFNPRSFSQ P11Y (TLNPNAKEFNYRSFSQ)
DMS-derived PSSM value, position P11 [7]: 0.04593

KSTLNPNAKEFNPRSF N7E (KSTLNPEAKEFNPRSF)
DMS-derived PSSM value, position N7 [1]: 0.03193

TLNPNAKEFNPRSF(averaged) F9K (TLNPNAKEKNPRSF)
DMS-derived PSSM value (averaged), position F9 [3]: 0.003046

TLNPNAKEFNPRSFSQ R12D (TLNPNAKEFNPDSFSQ)
DMS-derived PSSM value, position R12 [9]: 0.05154

KSTLNPNAKEFNPRSF E10K (KSTLNPNAKKFNPRSF)
DMS-derived PSSM value, position E10 [15]: 0.06317

TLNPNAKEFNPRSF(averaged) F9P (TLNPNAKEPNPRSF)
DMS-derived PSSM value (averaged), position F9 [3]: 0

KSTLNPNAKEFNPRSF A8H (KSTLNPNHKEFNPRSF)
DMS-derived PSSM value, position A8 (prey ATXN2, peptide KSTLNPNAKEFNPRSF, A = wild type): 0

KSTLNPNAKEFNPRSF E10R (KSTLNPNAKRFNPRSF)
DMS-derived PSSM value, position E10 [15]: 0

TLNPNAKEFNPRSFSQ S13P (TLNPNAKEFNPRPFSQ)
DMS-derived PSSM value, position S13 [16]: 0.0852

TLNPNAKEFNPRSFSQ P11R (TLNPNAKEFNRRSFSQ)
DMS-derived PSSM value, position P11 [7]: 0.006355

TLNPNAKEFNPRSF(averaged) N5G (TLNPGAKEFNPRSF)
DMS-derived PSSM value (averaged), position N5 [10]: 0.006922

KSTLNPNAKEFNPRSF F16D (KSTLNPNAKEFNPRSD)
DMS-derived PSSM value, position F16 [17]: 0.02019

TLNPNAKEFNPRSF(averaged) E8D (TLNPNAKDFNPRSF)
DMS-derived PSSM value (averaged), position E8 [14]: 0

KSTLNPNAKEFNPRSF K9D (KSTLNPNADEFNPRSF)
DMS-derived PSSM value, position K9 (prey ATXN2, peptide KSTLNPNAKEFNPRSF, K = wild type): 0.007291

TLNPNAKEFNPRSFSQ S13E (TLNPNAKEFNPREFSQ)
DMS-derived PSSM value, position S13 [16]: 0.006231

TLNPNAKEFNPRSF(averaged) S13W (TLNPNAKEFNPRWF)
DMS-derived PSSM value (averaged), position S13 [12]: 0.01751

TLNPNAKEFNPRSF(averaged) T1Y (YLNPNAKEFNPRSF)
DMS-derived PSSM value (averaged), position T1 [4]: 0.168

TLNPNAKEFNPRSF(averaged) L2K (TKNPNAKEFNPRSF)
DMS-derived PSSM value (averaged), position L2 [18]: 0.0007818

KSTLNPNAKEFNPRSF R14T (KSTLNPNAKEFNPTSF)
DMS-derived PSSM value, position R14 [2]: 0.1913

KSTLNPNAKEFNPRSF F11E (KSTLNPNAKEENPRSF)
DMS-derived PSSM value, position F11 [17]: 0

KSTLNPNAKEFNPRSF N5Y (KSTLYPNAKEFNPRSF)
DMS-derived PSSM value, position N5 [1]: 0.01612

KSTLNPNAKEFNPRSF F11M (KSTLNPNAKEMNPRSF)
DMS-derived PSSM value, position F11 [17]: 0

TLNPNAKEFNPRSFSQ T1H (HLNPNAKEFNPRSFSQ)
DMS-derived PSSM value, position T1 (prey ATXN2, peptide TLNPNAKEFNPRSFSQ, T = wild type): 0.01756

TLNPNAKEFNPRSFSQ R12V (TLNPNAKEFNPVSFSQ)
DMS-derived PSSM value, position R12 [9]: 0.1384

KSTLNPNAKEFNPRSF F11G (KSTLNPNAKEGNPRSF)
DMS-derived PSSM value, position F11 [17]: 0

TLNPNAKEFNPRSF(averaged) P4Q (TLNQNAKEFNPRSF)
DMS-derived PSSM value (averaged), position P4 (prey ATXN2, TLNPNAKEFNPRSF(averaged) over the two overlapping peptides, P = wild type): 0.01774

TLNPNAKEFNPRSF(averaged) L2T (TTNPNAKEFNPRSF)
DMS-derived PSSM value (averaged), position L2 [18]: 0

KSTLNPNAKEFNPRSF S2T (KTTLNPNAKEFNPRSF)
DMS-derived PSSM value, position S2 [13]: 0.02133

TLNPNAKEFNPRSF(averaged) F14W (TLNPNAKEFNPRSW)
DMS-derived PSSM value (averaged), position F14 [3]: 0.01444

TLNPNAKEFNPRSF(averaged) R12G (TLNPNAKEFNPGSF)
DMS-derived PSSM value (averaged), position R12 (prey ATXN2, TLNPNAKEFNPRSF(averaged) over the two overlapping peptides, R = wild type): 0.06327

TLNPNAKEFNPRSF(averaged) A6L (TLNPNLKEFNPRSF)
DMS-derived PSSM value (averaged), position A6 [8]: 0

KSTLNPNAKEFNPRSF P6N (KSTLNNNAKEFNPRSF)
DMS-derived PSSM value, position P6 [6]: 0

TLNPNAKEFNPRSF(averaged) N5R (TLNPRAKEFNPRSF)
DMS-derived PSSM value (averaged), position N5 [10]: 0.004628

KSTLNPNAKEFNPRSF S2Q (KQTLNPNAKEFNPRSF)
DMS-derived PSSM value, position S2 [13]: 0.001157

KSTLNPNAKEFNPRSF S2G (KGTLNPNAKEFNPRSF)
DMS-derived PSSM value, position S2 [13]: 0.02803

TLNPNAKEFNPRSF(averaged) S13R (TLNPNAKEFNPRRF)
DMS-derived PSSM value (averaged), position S13 [12]: 0.00496

TLNPNAKEFNPRSFSQ S15N (TLNPNAKEFNPRSFNQ)
DMS-derived PSSM value, position S15 [16]: 0.007151

KSTLNPNAKEFNPRSF R14L (KSTLNPNAKEFNPLSF)
DMS-derived PSSM value, position R14 [2]: 0.02501

Reference: PMC12102759 (Protein Science : A Publication of the Protein Society, 2025)
